Ends that are not written are not given here.
Legend:
rat ASIC1b = target: T1, rat ASIC1b (Rattus norvegicus, UniProt P55926); assay: Whole-cell current activation, rat ASIC1b in X. laevis oocytes; type: cell-based
T1 construct: expressed in transfected cells; host or cells: Xenopus laevis oocytes (injected)
T1 sequence (P55926 1-559 isoform P55926-3): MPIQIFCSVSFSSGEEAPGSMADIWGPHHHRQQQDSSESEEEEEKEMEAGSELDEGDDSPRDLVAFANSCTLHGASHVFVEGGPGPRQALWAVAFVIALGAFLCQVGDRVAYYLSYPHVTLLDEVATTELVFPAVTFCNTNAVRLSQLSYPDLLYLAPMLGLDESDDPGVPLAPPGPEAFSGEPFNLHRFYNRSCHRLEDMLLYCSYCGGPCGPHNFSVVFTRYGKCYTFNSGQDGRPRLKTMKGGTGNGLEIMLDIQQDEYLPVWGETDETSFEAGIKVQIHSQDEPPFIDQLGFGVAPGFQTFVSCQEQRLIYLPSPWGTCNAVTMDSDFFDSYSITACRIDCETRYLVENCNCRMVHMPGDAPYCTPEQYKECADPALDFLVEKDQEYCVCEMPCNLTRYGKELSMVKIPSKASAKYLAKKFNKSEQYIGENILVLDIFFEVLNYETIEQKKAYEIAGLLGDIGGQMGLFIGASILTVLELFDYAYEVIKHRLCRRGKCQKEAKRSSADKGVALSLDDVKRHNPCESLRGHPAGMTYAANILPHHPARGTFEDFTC
Method: (§1) Oocytes expressed rASIC1a, rASIC1b, rASIC2a, and rASIC3 homomeric channels were prepared as described. Injected oocytes were kept for two–three days at 19 °C and then for up to seven days at 15 °C in ND-96 medium supplemented with gentamycin (50 μg·mL^−1) and containing (in mM): 96 NaCl, 2 KCl, 1.8 CaCl2, 1 MgCl2, and 10 HEPES titrated to pH 7.4 with NaOH. Electrophysiological recordings were performed using the GeneClamp500 amplifier (Axon Instruments, Inverurie, UK) at a holding potential of -50 mV. The data were filtered at 20 Hz and digitized at 100 Hz using the L780 AD converter (L-Card, Moscow, Russia). Microelectrodes were filled with 3 M KCl. The external bath solution was ND-96 with pH adjusted to 7.4/7.8 (10 mM HEPES) /8.5 (10 mM Tris). Nocistatin containing solutions were freshly prepared and buffered each experimental day in ND-96 bath solution (pH 7.4/7.8/8.5). Proton-activated currents through ASIC channels were elicited by application of ND-96, in which 10 mM of HEPES was substituted with 10 mM MES at pH 5.5/ 10 mM acetic acid at pH 4.5. The whole-cell recording was performed if a response to the control pH stimulus was stable in at least two replicates. Nocistatin-activated currents were elicited by application of nocistatin containing solutions with various concentrations of the peptide.
(§2) Extracellular solutions were applied using a computer-controlled valve system with a flow rate of 1 mL/min. The oocyte chamber volume was 80 µL. The validity of the application system for studying ASIC channels expressed in oocytes was confirmed in experiments by application of a Cl-free solution (containing (in mM): 130 NMDG, 1 MgGluc2, 2 KGluc, 5 HEPES) (pH 7.4). Fast application of proton/peptide-activating solution was performed at a flow rate of 1 mL/sec (the change of the bath solution occurred within 100 ms), followed by PC controlled flow stopping (from 5 to 15 s).
(d) The time course of curves’ decay was fitted using a mono-exponential equation: F4(x) = A1*e^(-x/τdes) + A0, where F4(x) is the current amplitude at the time point x, A1 is the maximal current amplitude, A0 is its steady-state value and τdes is the […].
(§3) All data are presented as mean ± SEM. The significance of normalized data differences was determined with a non-parametric Kruskal-Wallis ANOVA test with the significance level * p < 0.05 and ** p < 0.01; ns, non-significant.

rat ASIC1a = target: T2, rat ASIC1a (Rattus norvegicus, UniProt P55926); assay: Inhibition of pH 5.5-induced ASIC1a current following rNS action; type: cell-based
T2 construct: expressed in transfected cells; host or cells: Xenopus laevis oocytes (injected)
T2 sequence (P55926 1-526): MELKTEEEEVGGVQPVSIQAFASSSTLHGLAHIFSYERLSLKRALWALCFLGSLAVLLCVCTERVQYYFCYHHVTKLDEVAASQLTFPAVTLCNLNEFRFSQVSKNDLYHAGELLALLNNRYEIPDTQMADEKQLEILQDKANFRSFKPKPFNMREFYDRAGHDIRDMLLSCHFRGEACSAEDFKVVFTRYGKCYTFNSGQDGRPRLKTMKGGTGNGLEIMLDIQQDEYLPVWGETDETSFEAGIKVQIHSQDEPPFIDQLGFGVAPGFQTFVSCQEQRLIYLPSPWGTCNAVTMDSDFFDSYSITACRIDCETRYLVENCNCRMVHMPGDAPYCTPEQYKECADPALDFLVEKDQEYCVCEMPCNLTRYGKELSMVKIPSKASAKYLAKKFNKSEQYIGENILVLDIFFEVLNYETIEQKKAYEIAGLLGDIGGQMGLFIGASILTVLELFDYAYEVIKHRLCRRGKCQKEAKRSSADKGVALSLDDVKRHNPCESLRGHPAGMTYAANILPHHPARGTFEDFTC
Method: as §1, §2
(c) Generalized logistic differential equation (the four-parameter logistic nonlinear regression model or a Hill function) F3(x) = ((A1 – A2)/(1 + (x/x0)^nH)) + A2, where F3(x) is the response value at a given nocistatin concentration, x is the concentration of nocistatin; A1 is the control response value (fixed at 100%) or the minimum asymptote of the response when concentration = 0; A2 is the response value at maximal inhibition or the maximum asymptote or the stabilized response for an infinite concentration (% of control), x0 is the concentration at which 50% of the channels are expected to show the response (or the response halfway between the minimum response asymptote A1 and the maximum response asymptote A2) (IC50 value) and nH is the Hill coefficient (a level of cooperativity). The maximum amplitude (Imax) was calculated for each oocyte by individual fitting; the data were normalized to it, then the normalized data were averaged and fitted by the logistic equations F1(x) and F2(x).
as §3

[1] = amplitude of pH 5.5-induced current, F3, n = 5
[2] = pH 5.5 stimulus after 0.125–0.5 mM nocistatin pretreatment, n = 5

## MPRVRSVVQARDAEPEADAEPVADEADEVEQKQLQ [rNS]
Rat ASIC1b; 1 mM rNS vs pH drop 7.4–5.5
  Acurrent, nocistatin versus protons: did not differ between protons and nocistatin
  Desensitization time, difference between stimuli: No differences were observed in desensitization time
  tmax, nocistatin versus protons: no differences
Rat ASIC1b; 1 mM rNS, conditioning pH 7.4, mean ± S.E. from 4–7 measurements
  τdes (desensitization time constant): 0.5 ± 0.06 s
Rat ASIC1a; IC50 comparison
  Reduction of the 1st versus the 2nd component of the current: reduced the 1st component of the current twice as effectively
Rat ASIC1a; [1]
  nH of inhibition, 1st component: 3.5 ± 0.4
  nH of inhibition, 2nd component: 1.9 ± 0.2
Rat ASIC1a; integral of pH 5.5-induced current after nocistatin, F3
  nH, integral current inhibition: 2.9 ± 0.4
Rat ASIC1a; integral of pH 5.5-induced current after nocistatin, F3 (fitted much worse than amplitude)
  IC50: 150 ± 20 µM
Rat ASIC1a; low concentrations, Figure 2d and S2B
  Concentration at which nocistatin acts as an inhibitor: ≤ 0.2 mM
Rat ASIC1a; [2]
  tmax1, 1st component of proton-induced current: 0.495 ± 0.085 s
  tmax2, 2nd component of proton-induced current: 1.415 ± 0.112 s
